Measured values as given in article PMC13355314, “Charged molecular glue discovery enabled by targeted degron display” (Nature Chemical Biology, 2026).
Where “and” joins values, the source holds several entries; their conditions need not be identical. Equal values may be shown once. Entries after “also recorded” stand apart in the source; their conditions may differ.

Assays:
[1] = GSH chemical stability; type: physicochemical; conditions: for half-life: GSH chemical stability; for remaining at 5 min / remaining at […] / remaining at 0.5 h / remaining at 1 h / remaining at 2 h: GSH; for remaining at […]: 15 min; for remaining at 0.5 h: 30 min; for remaining at 1 h: 60 min; for remaining at 2 h: 120 min
From the text: Afatinib Time Peak Area %Remaining Ln T1/2
(Ctrl) (min) Ratio (%remaining) (min)
(min) Ratio (%remaining) (min)

[2] = system: ternary complex of *BRD4BD1, ZZ1-SO2H and YPEL5-WDR26; assay: Competitive FP disrupting the ternary complex; type: binding, human
From the text: The four-parameter [inhibitor] versus response model was applied to estimate the IC50.

[3] = Microsome stability, HLM; type: in vitro ADME; conditions: human, liver microsomes; for half-life: read-out: HLM Stability (T1/2 min)
[4] = Microsome stability, MLM; type: in vitro ADME; conditions: mouse, liver microsomes; for half-life: read-out: MLM Stability (T1/2 min)
[5] = molecular target: T1, BRD4 (Homo sapiens, UniProt O60885); assay: HiBiT–BRD4 assay (endogenous BRD4 protein levels); type: cell-based
T1 construct: Endogenous BRD4 protein levels were evaluated using the Nano-Glo HiBiT lytic detection system; endogenous in cells; host or cells: Jurkat (HiBiT knock-in; some series in YPEL5-/- cells re-expressing WT or mutant YPEL5-FLAG)
Method: Introduction of a HiBiT coding sequence into the endogenous BRD4 locus in Jurkat cells was achieved using CRISPR–Cas9 genome editing. Alt-R CRISPR RNA (crRNA) and trans-activating crRNA (tracrRNA) (Integrated DNA Technologies) were resuspended in nuclease-free duplex buffer (Integrated DNA Technologies) at a concentration of 200 µM each. Equal volumes of crRNA and tracrRNA were mixed (final concentration of 100 µM each) and heated for 5 min at 95 °C. After heating, the complex was gradually cooled to room temperature. The oligo complex was then incubated at room temperature for 20 min with the Alt-R Cas9 nuclease V3 (Integrated DNA Technologies) to form the ribonucleoprotein (RNP) complex. The double-stranded DNA homology-directed repair (HDR) template (HiBiT–BRD4 with extensions, shown below), the RNP complex and an electroporation enhancer (Integrated DNA Technologies) were then electroporated into Jurkat cells using an Amaxa 4D-Nucleofector (Lonza). Electroporated cells were transferred to medium with HRD enhancer (Integrated DNA Technologies). Single cells were subsequently isolated by fluorescence-activated cell sorting and HiBiT expression from individual clones was detected with the Nano-Glo HiBiT lytic detection system (Promega). Sequences for the crRNA and HDR donor are provided below.
Endogenous BRD4 protein levels were evaluated using the Nano-Glo HiBiT lytic detection system (Promega). In brief, 1.5 × 10^4 HiBiT–BRD4 Jurkat cells were seeded into 384-well plates and incubated with the indicated concentrations of compounds. After 5 h, the plates were subjected to a Nano-Glo HiBiT lytic detection system as described in the manufacturer’s manual. The HiBiT–BRD4 assays were conducted in biological triplicates.

[6] = molecular target: T2, YPEL5 (Homo sapiens, UniProt P62699); assay: Octet BLI, binary affinity of degrader for YPEL5 (no BRD4BD1); type: binding; conditions: absence of BRD4BD1
T2 construct: made in house; host or cells: Trichoplusia ni High Five insect cells
Method: To quantify interactions between the degrader-bound neosubstrates and the CTLH E3 neosubstrate receptor module, we determined the KD using Octet BLI.
For each measurement, one of the loaded sensors was dipped in the reference solution containing 0 or 5 μM degrader in the BLI binding buffer (in the absence of the analyte protein). The reference response values were subtracted from the responses elicited by all the neosubstrate-containing solutions before data analysis. All BLI experiments were carried out at 20 °C using the eight-channel Octet R8 system (Sartorius). Concentrated proteins and compounds were diluted in the BLI binding buffer composed of 25 mM HEPES pH 7.5, 150 mM NaCl, 1 mM DTT and 0.05% Tween-20.
The raw data were processed with Octet analysis software (Sartorius) by applying a global fitting with linked Rmax values (assuming a 1:1 binding model). […] KD was estimated by nonlinear regression using the one-site binding model.

[7] = molecular target: T3, *BRD4BD1 / YPEL5-CTLH E3 (Homo sapiens, UniProt O60885+P62699); assay: In vitro ubiquitylation assay (YPEL5-CTLH E3, UBE2H); type: biochemical; conditions: YPEL5-CTLH E3-dependent
T3 construct: fluorescent BRD4 bromodomain substrates, either in isolation (BRD4BD1 and BRD4BD2) or in tandem (BRD4BD1+BD2); GST (N, cleaved yes); made in house; host or cells: CTLH E3 and UBA1: High Five insect cells; BRD4BD1, UBE2H, ubiquitin: E. coli BL21 (DE3) RIL
Method: All ubiquitylation assays were performed at room temperature in the final reaction buffer containing 25 mM HEPES pH 7.5, 150 mM NaCl, 0.25 mM DTT, 5 mM ATP and 10 mM MgCl2. Samples at indicated time points were quenched by mixing an aliquot of the total reaction mixture with a reducing Laemmli buffer and subjected to SDS–PAGE. Substrate ubiquitylation was visualized by a fluorescence scan of SDS–PAGE gels using the Amersham Typhoon Imager 600 (GE Healthcare).
The mixture was incubated at room temperature for 1 h and supplemented with 0.2 μM E1 UBA1 and 20 μM ubiquitin to initiate the reaction.

[8] = molecular target: T4, FAM–BRD4BD1 + YPEL5–WDR26 module (Homo sapiens, UniProt O60885+P62699); assay: FP assay quantifying ternary complex formation; conditions: *BRD4BD1 binding to YPEL5–WDR26 upon degrader titration
T4 construct: fluorescent BRD4 bromodomain substrates, either in isolation (BRD4BD1 and BRD4BD2) or in tandem (BRD4BD1+BD2); GST (N, cleaved yes); made in house; host or cells: BRD4BD1: E. coli BL21 (DE3) RIL; YPEL5–WDR26ΔCTLH: Trichoplusia ni High Five insect cells
From the text: The potency of the degraders was expressed as the EC50 estimated by nonlinear regression using a four-parameter [agonist] versus response model.

[9] = Plasma stability, mouse; type: in vitro ADME; conditions: read-out: Plasma Stability (T1/2 min)
[10] = molecular target: T5, BRD3BD1 (Homo sapiens, UniProt Q15059); assay: Cellular fluorescent reporter assay, BRD3 BD1; type: cell-based
T5 construct: Cellular fluorescent reporter assay testing ZZ1-induced degradation of BRD2 and BRD3 BD1 bromodomains; expressed in transfected cells
Method: (§1) Then, 50 µl of cell suspension was seeded in 384-well plates and immediately treated with DMSO or drug for 16 h. The indicated drugs were dispensed with a D300 digital dispenser (Tecan Genomics). The fluorescence signal was quantified by flow cytometry (FACSymphony flow cytometer, BD Biosciences). Using FlowJo (flow cytometry analysis software, BD Biosciences), the geometric mean of the eGFP and mCherry fluorescent signal for round and mCherry-positive cells was calculated. The ratio of eGFP to mCherry was normalized to the average of ten DMSO-treated controls.

[11] = system: BRD2, BRD3, BRD4; assay: Western blotting of BET protein degradation; type: cell-based, human; conditions: immunoblotting (and proteome-wide MS)
Method: Total cells lysates were prepared in 2× sample loading buffer (that is, 250 mM Tris-HCl pH 6.8, 4% SDS, 10% glycerol, 0.006% bromophenol blue, 2% β-mercaptoethanol, 50 mM sodium fluoride and 5 mM sodium orthovanadate). The samples with cell lysates were boiled for 5–8 min at 95 °C. The protein concentrations of the cell lysates were quantified using the BCA method and a BCA protein assay kit (Thermo Fisher Scientific). […] After washing the membranes with PBS for 30 min, the membranes were detected on a Li-COR Odyssey CLx system.

[12] = molecular target: T6, BRD2BD1 (Homo sapiens, UniProt P25440); assay: Cellular fluorescent reporter assay, BRD2 BD1; type: cell-based
T6 construct: Cellular fluorescent reporter assay testing ZZ1-induced degradation of BRD2 and BRD3 BD1 bromodomains; expressed in transfected cells
Method: as §1

[13] = molecular target: T7, BRD4BD2 (Homo sapiens, UniProt O60885); assay: BRD4 reporter stability analysis, BRD4BD2–eGFP (K562-Cas9, flow cytometry); type: cell-based; conditions: for DC50: BRD4BD2 reporter, K562, 16 h; for Dmax: K562
T7 construct: host or cells: K562-Cas9
Method: (§2) The Cilantro 2 reporter vector (PGK.BsmBICloneSite-10aaFlexibleLinker-eGFP.IRES.mCherry. cppt.EF1α.PuroR; Addgene, 74450) was used for flow-based degradation assays. […] Reporter cell lines were generated as described previously.
as §1

[14] = Plasma stability, human; type: in vitro ADME; conditions: read-out: Plasma Stability (T1/2 min)
[15] = system: FAM–BRD4BD1 + YPEL5–WDR26; assay: Real-time FP monitoring the rate of ternary complex formation; type: binding, human; conditions: in vitro, DTT-containing buffer
Method: Here, the concentration of DTT in the binding buffer used for preparing the tracer–E3 ligase mixture varied from 0.1 to 5 mM.

[16] = molecular target: T8, BRD4BD1+BD2 (Homo sapiens, UniProt O60885); assay: BRD4 reporter stability analysis, BRD4BD1+BD2–eGFP (K562-Cas9, flow cytometry); type: cell-based; conditions: K562, 16 h
T8 construct: host or cells: K562-Cas9
Method: as §2, §1

[17] = molecular target: T9, BRD4BD1 (Homo sapiens, UniProt O60885); assay: cell-based; type: cell-based; conditions: K562, 16 h
T9 construct: host or cells: K562-Cas9
Method: Reporter cell lines were generated as described previously.
as §1

T5 sequence (Q15059 34-140 limits assumed): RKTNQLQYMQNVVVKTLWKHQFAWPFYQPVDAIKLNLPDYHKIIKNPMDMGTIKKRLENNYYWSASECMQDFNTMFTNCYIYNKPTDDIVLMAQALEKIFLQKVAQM
T6 sequence (P25440 74-180 limits assumed): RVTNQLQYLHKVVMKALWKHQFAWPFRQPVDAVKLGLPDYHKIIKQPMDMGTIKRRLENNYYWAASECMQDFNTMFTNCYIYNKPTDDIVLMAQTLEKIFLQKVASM
T2 sequence (P62699 2-121): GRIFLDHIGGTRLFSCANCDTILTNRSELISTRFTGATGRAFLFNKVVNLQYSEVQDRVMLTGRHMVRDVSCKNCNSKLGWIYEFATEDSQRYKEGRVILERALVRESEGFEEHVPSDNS

CN(C)C/C=C/C(=O)Nc1cc2c(Nc3ccc(F)c(Cl)c3)ncnc2cc1O[C@H]1CCOC1 [Afatinib, reference compound]
half-life ([1]; glutathione (GSH) solution): 25.2 min | remaining at 5 min ([1]; glutathione (GSH) solution): 82.1% | remaining at […] ([1]; glutathione (GSH) solution): 48.1% | remaining at 0.5 h ([1]; glutathione (GSH) solution): 27.6% | remaining at 1 h ([1]; glutathione (GSH) solution): 13.8% | remaining at 2 h ([1]; glutathione (GSH) solution): 3.43%

Cc1sc2c(c1C)C(c1ccc(Cl)cc1)=N[C@@H](CC(=O)OC(C)(C)C)c1nnc(C)n1-2 [JQ1, reference compound]
disruption of the ternary complex [2]: could disrupt the ternary complex

CCN(CC)CCNC(=O)c1c(C)[nH]c(/C=C2\C(=O)Nc3ccc(F)cc32)c1C [Sunitinib, reference compound]
microsomal CLint [3]: 32 µL/min/mg | half-life [3]: 43.5 min | microsomal CLint [4]: 38 µL/min/mg | half-life [4]: 36.5 min

Cc1sc2c(c1C)C(c1ccc(NC(=O)c3ccc(S(=O)O)c(Cl)c3)cc1)=N[C@@H](CC(=O)OC(C)(C)C)c1nnc(C)n1-2 [ZZ1-SO2H]
activity in cellular assays [5]: inactive | affinity between degrader and YPEL5 by BLI [6]: did not observe measurable affinity | BRD4BD1 ubiquitylation in vitro [7]: promoted robust BRD4BD1 ubiquitylation | EC50 [8]: 60 nM and ~60 nM and 74 nM

Cc1sc2c(c1C)C(c1ccc(NC(=O)c3ccc(S(=O)(=O)O)c(Cl)c3)cc1)=N[C@@H](CC(=O)OC(C)(C)C)c1nnc(C)n1-2 [ZZ1-SO3H]
activity in cellular assays [5]: inactive | BRD4BD1 ubiquitylation in vitro [7]: promoted robust BRD4BD1 ubiquitylation

Cc1sc2c(c1C)C(c1ccc(NC(=O)c3ccc(S(=O)(=O)F)c(Cl)c3)cc1)=N[C@@H](CC(=O)OC(C)(C)C)c1nnc(C)n1-2 [ZZ1]
Dmax ([5]; Jurkat): 82% | DC50 ([5]; Jurkat cells pretreated with MG132 for 1 h, then ZZ1 5 h): > 20000 nM | DC50 ([5]; Jurkat cells pretreated with MLN-4924 for 1 h, then ZZ1 5 h): 1400 ± 130 nM | DC50 ([5]; Jurkat cells, 5 h): 502 nM and 489 nM | DC50 ([5]; Jurkat, 5 h, cells pretreated with 100 μM GSH for 2 h): 152 ± 19 nM | DC50 ([5]; Jurkat, 5 h, no GSH pre-treatment): 237 ± 20 nM | DC50 ([5]; WT YPEL5-expressing Jurkat cells, 5 h): 168 ± 15 nM | DC50 ([5]; YPEL5 L62A-expressing Jurkat cells, 5 h): 841 ± 137 nM | DC50 ([5]; YPEL5 R41A-expressing Jurkat cells, 5 h): 719 ± 102 nM | DC50 ([5]; YPEL5 T36A-expressing Jurkat cells, 5 h): 971 ± 176 nM | half-life [9]: 57 min | DC50 [10]: 33.5 ± 5.4 nM | Dmax [10]: 73% | microsomal CLint [3]: 195 µL/min/mg | half-life [3]: 7.1 min | BET protein degradation [11]: induced selective degradation of BET proteins (BRD3, BRD4 and, to a lesser extent, BRD2); also recorded: especially potent in the Ewing sarcoma TC-71 cell line | DC50 [12]: 70.1 ± 3.6 nM | Dmax [12]: 63% | DC50 [13]: 532 ± 80.2 nM | Dmax [13]: 40% | half-life [14]: 45 min | rate of ternary complex formation [15]: induced ternary complex formation slowly | DC50 [16]: 75 ± 16.4 nM | Dmax [16]: 80% | DC50 ([17]; BRD4BD1 reporter): 126 nM and 128 nM | Dmax ([17]; BRD4BD1 reporter): 88% | Dmax ([17]; K562, BRD4BD1 reporter): 69% | microsomal CLint [4]: 254 µL/min/mg | half-life [4]: 5.5 min | half-life ([1]; buffer): < 5 min | remaining at 5 min ([1]; buffer): 26.7% | remaining at […] ([1]; buffer): 9.36% | remaining at 0.5 h ([1]; buffer): 3.21% | remaining at 1 h ([1]; buffer): 3.12% | remaining at 2 h ([1]; buffer): 2.27%

Cc1sc2c(c1C)C(c1ccc(NC(=O)c3cc(Cl)c(S(=O)O)c(Cl)c3)cc1)=N[C@@H](CC(=O)OC(C)(C)C)c1nnc(C)n1-2 [ZZ2-SO2H, 4-((4-((S)-6-(2-(tert-butoxy)-2-oxoethyl)-2,3,9-trimethyl-6H-thieno[3,2-f][1,2,4]triazolo[4,3-a][1,4]diazepin-4-yl)phenyl)carbamoyl)-2,6-dichlorobenzenesulfinic acid]
BRD4BD1 ubiquitylation in vitro [7]: promotes more robust BRD4BD1 ubiquitylation | EC50 [8]: < 74 nM

Cc1sc2c(c1C)C(c1ccc(NC(=O)c3cc(Cl)c(S(=O)(=O)F)c(Cl)c3)cc1)=N[C@@H](CC(=O)OC(C)(C)C)c1nnc(C)n1-2 [ZZ2]
DC50 ([5]; Jurkat cells, 5 h): 169 nM | half-life [9]: 7 min | DC50 [10]: 21.1 ± 3.1 nM | Dmax [10]: 82% | microsomal CLint [3]: 670 µL/min/mg | half-life [3]: 2.1 min | DC50 [12]: 46.4 ± 6.6 nM | Dmax [12]: 76% | DC50 [13]: 198 ± 75.5 nM | Dmax [13]: 31% | half-life [14]: 14 min | rate of ternary complex formation [15]: much faster rate | DC50 ([17]; BRD4BD1 reporter): 91 ± 8.8 nM | Dmax ([17]; K562, BRD4BD1 reporter): 81% | microsomal CLint [4]: 741 µL/min/mg | half-life [4]: 1.9 min | half-life ([1]; buffer): < 5 min | remaining at 5 min ([1]; buffer): 9.27% | remaining at […] ([1]; buffer): 4.72% | remaining at 0.5 h ([1]; buffer): 0% | remaining at 1 h ([1]; buffer): 0% | remaining at 2 h ([1]; buffer): 0%
